Results published in US4065456A, “Glycerol derivatives of quinoline carbostyryl and isocarbo styryl” (Otsuka Pharmaceutical Co., Ltd., priority 1973, dated 1977).

How the values were obtained:
[1] = test system: Collagen-Induced Aggregation In Rabbit Platelets; assay: Inhibition of collagen-induced aggregation in rabbit platelets (aggregometer, PRP); assay type: cell-based; conditions: Oryctolagus cuniculus, Platelet, PRP 450,000 platelets/mm^3; for inhibition at 100 µM: concentration 10^-4 M; for inhibition at 10 µM: concentration 10^-5 M; for inhibition at 1 µM: concentration 10^-6 M; for inhibition at 0.01 µM: concentration 10^-8 M
Description: (§1) The inhibitory activity of some compounds of this invention and the method for determination of the activity are described hereinafter in greater detail.
(§2) The aggregation inhibitory activity was determined using an AG-II type aggregometer (made by Bryston Manufacturing Co.). A blood sample was withdrawn from rabbits as a mixture of sodium citrate and whole blood in a proportion of 1:9 by volume and centrifuged at 1000 rpm for 10 minutes to obtain a platelet rich plasma (PRP). The resulting PRP was separated, and the remaining blood sample was further centrifuged at 3000 rpm for 15 minutes to obtain a platelet poor plasma (PPP).
(§3) The number of platelets in the PRP was counted in accordance with the Brecher-Clonkite Method, and the PRP was diluted with the PPP to prepare a PRP sample containing platelets in an amount of 300,000/mm^3 for an adenosine diphosphate (ADP)-induced aggregation test and a PRP sample containing platelets in an amount of 450,000/mm^3 for a collagen-induced aggregation test.
(§4) 0.01 ml of a solution of a test compound having a predetermined concentration (as shown in the Tables below) was then added to 0.6 ml of the PRP sample obtained above and the mixture was incubated at a temperature of 37° C for 1 minute. Then 0.07 ml of an ADP or collagen solution was added to the mixture. The mixture was then subjected to a transmittance determination and changes in the transmittance of the mixture were recorded using aggregometer at a stirrer rotation rate of 1100 rpm. In this test, Owren Veronal buffer (pH 7.35) was used for the preparation of solutions of ADP, collgen and the test compounds. ADP was adjusted to a concentration of 7.5 × 10^-5 M, and the collagen solution was prepared by triturating 100 mg of collagen with 5 ml of the above buffer and the supernatant obtained was used as a collagen inducer. Adenosine and acetylsalicylic acid were used as controls for the ADP-induced aggregation test and the collagen-induced aggregation test, respectively. The aggregation inhibitory activity was determined in terms of the percent inhibition (%) with respect to the aggregation ratio of controls. The aggregation ratio can be calculated by the following equation: [formula] Wherein:
(§5) "a" is the optical density of the PRP,
(§6) "b" is the optical density of the PRP having incorporated therein a test compound and an aggregation inducer, and
(§7) "c" is the optical density of the PPP.

[2] = test system: ADP-Induced Aggregation In Rabbit Platelets; assay: Inhibition of ADP-induced aggregation in rabbit platelets (aggregometer, PRP); assay type: cell-based; conditions: Oryctolagus cuniculus, Platelet, ADP 7.5 × 10^-5 M, PRP 300,000 platelets/mm^3; for inhibition at 100 µM: concentration 10^-4 M; for inhibition at 1 µM: concentration 10^-6 M; for inhibition at 0.01 µM: concentration 10^-8 M; for inhibition at 10 µM: concentration 10^-5 M
Description: as §1, §2, §3, §4, §5, §6, §7

SMILES	inhibition at 100 µM ([1]; table 2)	inhibition at 1 µM ([1]; table 2)	inhibition at 0.01 µM ([1]; table 2)	inhibition at 100 µM ([2]; table 3)	inhibition at 1 µM ([2]; table 3)	inhibition at 0.01 µM ([2]; table 3)	also measured
CC(=O)Oc1ccccc1C(=O)O [Acetylsalicylic Acid, reference compound]	–	–	–	–	–	–	inhibition at 100 µM ([1]; table 5): 100%; inhibition at 10 µM ([1]; table 5): 12%; inhibition at 1 µM ([1]; table 5): 8%
CN1C(=O)CCc2c(OCC(O)CO)cccc21 (centres unmarked) [drawing 33]	7%	13%	0%	–	–	–	–
O=C1CCc2c(cccc2OC[C@H](O)CO)N1 [drawing 48]	–	–	–	–	–	–	inhibition at 100 µM ([1]; table 5): 95%; inhibition at 10 µM ([1]; table 5): 3%; inhibition at 1 µM ([1]; table 5): 3%; inhibition at 0.01 µM ([1]; table 5): 0%
Nc1ncnc2c1ncn2[C@@H]1O[C@H](CO)[C@@H](O)[C@H]1O [Adenosine, reference compound]	–	–	–	70%	47%	5%	inhibition at 100 µM ([2]; table 4): 92%; inhibition at 10 µM ([2]; table 4): 74%; inhibition at 1 µM ([2]; table 4): 63%; inhibition at 0.01 µM ([2]; table 4): 15%
O=C1CCc2c(cccc2OC[C@H](O)CO)N1 [drawing 46]	–	–	–	–	–	–	inhibition at 100 µM ([2]; table 4): 49%; inhibition at 10 µM ([2]; table 4): 16%; inhibition at 1 µM ([2]; table 4): 8%; inhibition at 0.01 µM ([2]; table 4): 0%
CN1C(=O)CCc2c(OCC(O)CO)cccc21 (centres unmarked) [drawing 39]	–	–	–	7%	13%	0%	–
O=C1CCc2cc(OCC(O)CO)ccc2N1 (centres unmarked) [drawing 41]	–	–	–	100%	9%	26%	–
C=CCN1C(=O)CCc2c(OCC(O)CO)cccc21 (centres unmarked) [drawing 34]	0%	0%	0%	–	–	–	–
O=C1CCc2c(cccc2OCC(O)CO)N1 (centres unmarked) [drawing 32]	100%	11%	8%	–	–	–	–
O=C1CCc2cccc(OCC(O)CO)c2N1 (centres unmarked) [drawing 43]	–	–	–	25%	7%	21%	–
O=C1CCc2c(cccc2OCC(O)CO)N1 (centres unmarked) [drawing 47]	–	–	–	–	–	–	inhibition at 100 µM ([2]; table 4): 51%; inhibition at 10 µM ([2]; table 4): 18%; inhibition at 1 µM ([2]; table 4): 18%; inhibition at 0.01 µM ([2]; table 4): 15%
O=C1CCc2cccc(OCC(O)CO)c2N1 (centres unmarked) [drawing 37]	25%	7%	21%	–	–	–	–
C=CCN1C(=O)CCc2c(OCC(O)CO)cccc21 (centres unmarked) [drawing 40]	–	–	–	0%	0%	0%	–
O=C1CCc2c(cccc2OCC(O)CO)N1 (centres unmarked) [drawing 38]	–	–	–	21%	17%	21%	–
O=C1CCc2ccc(OCC(O)CO)cc2N1 (centres unmarked) [drawing 36]	13%	18%	4%	–	–	–	–
O=C1CCc2ccc(OCC(O)CO)cc2N1 (centres unmarked) [drawing 42]	–	–	–	13%	18%	4%	–
O=C1CCc2cc(OCC(O)CO)ccc2N1 (centres unmarked) [drawing 35]	100%	9%	26%	–	–	–	–
O=C1CCc2c(cccc2OCC(O)CO)N1 (centres unmarked) [drawing 49]	–	–	–	–	–	–	inhibition at 100 µM ([1]; table 5): 95%; inhibition at 10 µM ([1]; table 5): 17%; inhibition at 1 µM ([1]; table 5): 7%; inhibition at 0.01 µM ([1]; table 5): 3%
OCC(O)COc1cccc2c(O)nccc12 (centres unmarked)	–	–	–	2%	6%	0%	–
